These results are taken from patent US10662174B2, “BTK inhibitor” (Hubei Bio-Pharmaceutical Industrial Technological Institute …, priority 2015, dated 2020).

T1 sequence (Q06187 whole entry): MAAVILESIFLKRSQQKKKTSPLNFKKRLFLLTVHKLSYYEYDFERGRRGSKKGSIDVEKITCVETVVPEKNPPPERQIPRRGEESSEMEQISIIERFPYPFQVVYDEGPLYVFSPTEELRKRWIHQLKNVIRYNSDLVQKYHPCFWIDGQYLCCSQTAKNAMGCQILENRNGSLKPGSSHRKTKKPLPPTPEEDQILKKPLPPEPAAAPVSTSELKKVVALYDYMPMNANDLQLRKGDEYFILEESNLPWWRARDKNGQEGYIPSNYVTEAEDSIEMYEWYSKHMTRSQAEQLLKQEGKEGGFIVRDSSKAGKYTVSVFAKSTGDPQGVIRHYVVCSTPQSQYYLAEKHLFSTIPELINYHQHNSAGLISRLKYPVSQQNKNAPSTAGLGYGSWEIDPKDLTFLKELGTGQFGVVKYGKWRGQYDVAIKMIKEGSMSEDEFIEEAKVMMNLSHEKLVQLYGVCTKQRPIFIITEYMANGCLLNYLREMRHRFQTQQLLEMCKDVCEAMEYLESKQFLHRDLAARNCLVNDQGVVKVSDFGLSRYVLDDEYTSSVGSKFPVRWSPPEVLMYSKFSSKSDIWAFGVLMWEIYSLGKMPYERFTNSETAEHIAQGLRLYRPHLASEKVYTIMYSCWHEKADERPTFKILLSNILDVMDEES

The first test addresses T1, BTK kinase (Homo sapiens, UniProt Q06187).
T1 construct: purchased Invitrogen PR5442A
The test can be described thus: Assay of inhibition activity of BTK in vitro (HTRF kit, read on Envision). In kind it is biochemical.
Conditions: not given
The protocol:
Assay of Inhibition Activity of BTK In Vitro
The inhibition of compounds on BTK kinase was evaluated by […] detected by Envision, using the IC50 value of the compounds as index.
BTK kinase: Invitrogen-PR5442A
HTRF Assay Kit: Cisbio-62TKOPEJ
Plate for compound preparation: Greiner-781280
Cisbio HTRF Kit: Cisbio-62TKOPEJ
Centrifuge: Eppendorf-5810R
Bravo: Agilent Technologies-Bravo
Gradient Dilution of Compounds: […]
The test compound was dissolved with DMSO to be of 1 mM as a stock solution. Such a stock solution was diluted with DMSO by 10-fold, thereby obtaining an initial solution in a concentration of […] which was added into wells at the second column in a plate. 20 μL DMSO was added to other wells using Bravo. Then, 10 μL of the initial solution was transferred from wells at the second column to wells at the third column, followed by mixing obtained solution in the wells at the third column, thereby obtain a first diluted solution in a concentration of 1/3 μM. Subsequently, 10 μL of the first diluted solution was further transferred from wells at the third column to wells at the fourth column, followed by mixing obtained solution in the wells at the fourth column, thereby obtain a second diluted solution in a concentration of 1/9 μM. Such a three-fold serial dilution was performed 10 times, with 11 solutions in series diluted concentrations and a final diluted solution in a concentration of 0.017 nM obtained.
All diluted solutions were further diluted by 25-fold with ultrapure water, thus obtain test solutions, which were equilibrated at r.t. for 30 min before use.
To 2.5 μL of test solution, which was pipetted into each well of Assay plate using Bravo, 5 μL kinase mixture was added using the multi-channel pipettor. The mixture was centrifuged at 1000 rpm for 20 s, followed by incubation at 23° C. for 30 min. The reaction was initiated by 2.5 μL ATP mixture which was pipetted into the wells by Multidrop.
The reaction mixture of BTK kinase (10 μL) included 1.0 nM BTK, 1 μM biotin-TK1 peptide and 20 μM ATP. The reaction buffer included 50 mM Hepes (pH7.5), 10 mM MgCl2 and 0.01 mM […]. The kinase mixture was reacted in incubator at 23° C. for 90 mim.
The reaction was stopped by adding 10 μL Detection Reagent to each well of Assay plate, and the plate was left in incubator at 23° C. for 1 h before read on Envision.
Data analysis: The IC50 values of compounds were calculated using Excel fit.
Usually IC50 stands for the concentration that inhibits the measured activity by half. Turning to `CN1CCNC(=O)C1c1ccc(Nc2ccc(-c3ccc4c(c3)c(C(=O)c3ccc(C5CC5)cc3F)cn4C)n(C)c2=O)cc1` (stereo not drawn) [Example 16], the IC50 is 100 to 1000 nM.

The compound `CN1CCN(C)[C@H](c2ccc(Nc3nc(-c4ccc5c(c4)c(C(=O)c4ccc(C6CC6)cc4F)cn5C)cn(C)c3=O)cc2)C1=O` [Example 9] had an IC50 of 1000 to 10000 nM.

The test is the same for the next values; noted with them: 1.0 nM BTK, 1 μM biotin-TK1 peptide, 20 μM ATP, 23° C., tested by Envision; read-out: BTK IC50.
For `C=CC(=O)N[C@H]1CC[C@@H](n2nc(-c3ccc(OC4CC5CC5C4)cc3)c3c(N)n[nH]c(=O)c32)CC1` (stereo partly drawn) [Example 41], the IC50 was less than 100 nM.

As to `C=CC(=O)N1CCC(n2nc(-c3ccc(Oc4ccccc4)cc3)c3c(N)n[nH]c(=O)c32)C1` (stereo not drawn) [Example 43], the IC50 is less than 100 nM.

As to `C=CS(=O)(=O)N[C@H]1CC[C@@H](n2nc(-c3ccc(Oc4ccccc4)cc3)c3c(N)n[nH]c(=O)c32)CC1` [Example 58], the IC50 was less than 100 nM.

On to `C=CC(=O)N1CCC[C@@H](n2nc(-c3ccc(OC4CCCCC4)cc3)c3c(N)n[nH]c(=O)c32)C1` [Example 80], for which the IC50 was less than 100 nM.

Turning to `C=CC(=O)N1CCCC(n2nc(-c3ccc(Oc4cccc(F)c4)cc3)c3c(N)n[nH]c(=O)c32)C1` (stereo not drawn) [Example 56], the half-inhibitory concentration (IC50) is less than 100 nM.

As for `C=CC(=O)N1CCC[C@@H]1Cn1nc(-c2ccc(Oc3ccccc3)cc2)c2c(N)n[nH]c(=O)c21` [Example 38], the IC50 was less than 100 nM.

Consider `C=CC(=O)N1CC(n2nc(-c3ccc(Oc4ccccc4)cc3)c3c(N)n[nH]c(=O)c32)C1` [Example 73], for which the IC50 was less than 100 nM.

Regarding `C=CC(=O)N1CCC[C@@H](Nc2cc3ncc(-c4ccc(Oc5ccccc5)cc4)c(=O)n3cn2)C1` [Example 17], the IC50 was 1000 to 10000 nM.

`Cc1c(-c2cc(Nc3ccc(N4CCN(C)CC4)cn3)c(=O)n(C)c2)cccc1-c1ccc(-c2ccccc2)n(C)c1=O` [Example 7]: the IC50 was 1000 to 10000 nM.

With `C=CC(=O)N1CCC[C@@H](n2nc(-c3ccc(OC4Cc5ccccc5C4)cc3)c3c(N)n[nH]c(=O)c32)C1` [Example 74], the IC50 is less than 100 nM.

Consider `C=CC(=O)N1CCCC(n2nc(-c3ccc(Oc4cccc(C)c4)cc3)c3c(N)n[nH]c(=O)c32)C1` (stereo not drawn) [Example 67], for which the IC50 lay in the range of 1000 to 10000 nM.

For the compound `C=CC(=O)N[C@H]1CC[C@@H](n2nc(-c3ccc(Oc4ccccn4)cc3)c3c(N)n[nH]c(=O)c32)CC1` [Example 65], the IC50 is less than 100 nM.

`C=CC(=O)N1CCC[C@@H](n2nc(-c3ccc(Oc4cccc(C)n4)cc3)c3c(N)n[nH]c(=O)c32)C1` [Example 92]: the IC50 was less than 100 nM.

Take `C=CC(=O)N1CCC[C@@H](n2nc(-c3ccc(Oc4ccc(F)cn4)cc3)c3c(N)n[nH]c(=O)c32)C1` [Example 44]: the IC50 was less than 100 nM.

For `C=CC(=O)N1CCC[C@@H](n2nc(-c3ccc(Oc4ccc(C)cn4)cc3)c3c(N)n[nH]c(=O)c32)C1` [Example 91], the IC50 is less than 100 nM.

As for `CC#CC(=O)N1CCC[C@@H](n2nc(-c3ccc(Oc4ccccc4)cc3)c3c(N)n[nH]c(=O)c32)C1` [Example 45], the IC50 was less than 100 nM.

As for `C=CC(=O)N1CCCC(Nc2ncnc(N)c2C(=O)c2ccc(Oc3ccccc3)cc2Cl)C1` (stereo not drawn) [Example 42], the IC50 is 100 to 1000 nM.

With `C=CC(=O)Nc1ccc2ncn(-c3nc(Nc4ccc(OCCOC)cc4)ncc3F)c2c1` [Example 14], the IC50 was 1000 to 10000 nM.

As to `C=CC(=O)N1CCC[C@@H](n2nc(-c3ccc(Oc4ccc(C)nn4)cc3)c3c(N)n[nH]c(=O)c32)C1` [Example 90], the IC50 is 100 to 1000 nM.

With `C=CC(=O)N1CCC[C@@H](Nc2ncnc3[nH]cc(-c4ccccc4)c(=O)c23)C1` [Example 8], the IC50 lay in the range of 1000 to 10000 nM.

In the case of `C=CC(=O)N1CCC[C@@H](n2nc(-c3ccc(-c4nc5ccccc5o4)cc3)c3c(N)n[nH]c(=O)c32)C1` [Example 88], the IC50 is less than 100 nM.

For `C=CC(=O)N1CCC[C@@H](Nc2ncnc(N)c2C(=O)c2ccc(Oc3ccccc3)cc2F)C1` [Example 26], the IC50 lay within 1000 to 10000 nM.

With `C=CC(=O)N1CCC[C@H]1Cn1nc(-c2ccc(Oc3ccccc3)cc2)c2c(N)n[nH]c(=O)c21` [Example 37], the IC50 was less than 100 nM.

As for `CN(C)C/C=C/C(=O)N1CC[C@@H](n2nc(-c3ccc(Oc4ccccc4)cc3)c3c(N)n[nH]c(=O)c32)C1` [Example 61], the IC50 is less than 100 nM.

As for `C=CC(=O)NC1CCCC(n2nc(-c3ccc(Oc4ccccc4)cc3)c3c(N)n[nH]c(=O)c32)C1` (stereo not drawn) [Example 62], the IC50 was less than 100 nM.

For the compound `CN(C)/C=C/CC(=O)N1CCCC(n2nc(-c3ccc(Oc4ccccc4)cc3)c3c(N)n[nH]c(=O)c32)C1` (stereo not drawn) [Example 84], the IC50 is less than 100 nM.

Consider `CN(C)C/C=C/C(=O)N[C@H]1CC[C@@H](n2nc(-c3ccc(Oc4ccccn4)cc3)c3c(N)n[nH]c(=O)c32)CC1` [Example 64], for which the IC50 was in the range of 100 to 1000 nM.

As to `C=CC(=O)N1CCC[C@@H](n2nc(-c3ccc(C4OCCO4)cc3)c3c(N)n[nH]c(=O)c32)C1` [Example 49], the IC50 was less than 100 nM.

With `C=CC(=O)N1CCCC(c2nc3cnc(Nc4ccc(OCCOC)cc4)nc3[nH]2)C1` (stereo not drawn) [Example 21], the IC50 is 1000 to 10000 nM.

For the compound `C=CC(=O)N1CCC[C@@H](Nc2ncnc(N)c2C(=O)c2ccc(Oc3ccccc3)cc2)C1` [Example 1], the IC50 was 100 to 1000 nM.

Take `C=CC(=O)N1CCCC(c2c3c(=O)[nH]nc(N)c3nn2-c2ccc(Oc3ccccc3)cc2)C1` (stereo not drawn) [Example 78]: the IC50 is 100 to 1000 nM.

For `C=CC(=O)Nc1ccc2cnn(-c3ncnc(Nc4ccc(OCCOC)cc4)n3)c2c1` [Example 15], the IC50 was 1000 to 10000 nM.

Consider `C=CC(=O)N1CCCC(n2nc(-c3ccc(Oc4ccccc4)cc3)c3c(N)nn(C)c(=O)c32)C1` (stereo not drawn) [Example 85], for which the IC50 fell in the range of 100 to 1000 nM.

Regarding `C=CC(=O)N1CCCC(n2nc(-c3ccc(Oc4ccccc4)cc3)c3c(N)nn(CC)c(=O)c32)C1` (stereo not drawn) [Example 86], the IC50 lay within 1000 to 10000 nM.

Consider `Nc1n[nH]c(=O)c2c1c(-c1ccc(Oc3ccccc3)cc1)nn2[C@@H]1CCCN(C(=O)/C=C/CN2CCOCC2)C1` [Example 36], for which the IC50 is less than 100 nM.

Take `C=CC(=O)N(C)CCn1nc(-c2ccc(Oc3ccccc3)cc2)c2c(N)n[nH]c(=O)c21` [Example 31]: the concentration for half-maximal inhibition (IC50) is less than 100 nM.

`C=CC(=O)N1CCCC(n2nc(-c3ccc(Oc4ccccn4)cc3)c3c(N)n[nH]c(=O)c32)C1` (stereo not drawn) [Example 68]: the IC50 is less than 100 nM.

Consider `C=CC(=O)N1CCC[C@@H](n2nc(-c3ccc(OC4CC4)cc3)c3c(N)n[nH]c(=O)c32)C1` [Example 33], for which the IC50 was less than 100 nM.

For the compound `C=CC(=O)N1CCC[C@@H](n2nc(-c3ccc(Oc4ncccc4C)cc3)c3c(N)n[nH]c(=O)c32)C1` [Example 93], the IC50 is less than 100 nM.

Turning to `CN(C)C/C=C/C(=O)N[C@H]1CC[C@@H](n2nc(-c3ccc(Oc4ccccc4)cc3)c3c(N)n[nH]c(=O)c32)CC1` [Example 59], the IC50 was less than 100 nM.

In the case of `C=CC(=O)N1CCC[C@@H](Nc2ncnc(N)c2C(=O)c2ccc(Oc3ccccc3)cc2C)C1` [Example 25], the IC50 is 100 to 1000 nM.

In the case of `C=CC(=O)Nc1ccc(-c2nc3cnc(Nc4ccc(OCCOC)cc4)nc3[nH]2)cc1` [Example 22], the IC50 was less than 100 nM.

As to `C=CC(=O)Nc1cccc(-n2nc3c(=O)[nH]nc(N)c3c2-c2ccc(Oc3ccccc3)cc2)c1` [Example 69], the IC50 is less than 100 nM.

Turning to `C=CC(=O)Nc1ccc2ncn(-c3ncnc(Nc4ccc(OCCOC)cc4)n3)c2c1` [Example 27], the IC50 lay in the range of 1000 to 10000 nM.

`C=CC(=O)N1CCC[C@@H](n2nc(-c3ccc4c(cnn4-c4ccccc4)c3)c3c(N)n[nH]c(=O)c32)C1` [Example 47]: the IC50 lay within 1000 to 10000 nM.

Take `C=CC(=O)N1CCC[C@@H](n2nc(-c3ccc(OC4CCCC4)cc3)c3c(N)n[nH]c(=O)c32)C1` [Example 79]: the concentration for half-maximal inhibition (IC50) was less than 100 nM.

On to `C=CC(=O)N1CC2(CC(n3nc(-c4ccc(Oc5ccccc5)cc4)c4c(N)n[nH]c(=O)c43)C2)C1` [Example 46], for which the IC50 was less than 100 nM.

Take `C=CC(=O)N1CCC[C@@H](n2nc(-c3ccc(OC4CC5CC5C4)cc3)c3c(N)n[nH]c(=O)c32)C1` (stereo partly drawn) [Example 35]: the IC50 was less than 100 nM.

As to `Cc1ccn2c(=O)c(-c3cccc(-c4cc(Nc5ccc(N6CCN(C)CC6)cn5)c(=O)n(C)c4)c3C)ccc2c1` [Example 10], the IC50 lay within 1000 to 10000 nM.

Consider `C=CC(=O)Nc1cccc(-n2cnc3cnc(Nc4ccc(Oc5ccccc5)cc4)nc32)c1` [Example 29], for which the IC50 lay within 1000 to 10000 nM.

Regarding `Cc1ccn2c(=O)c(-c3cccc(-c4cn(C)c(=O)c(Nc5ccc([C@@H]6C(=O)NCCN6C)cc5)n4)c3C)ccc2c1` [Example 11], the IC50 was in the range of 1000 to 10000 nM.

Consider `C=CC(=O)N1CCC[C@@H](n2nc(-c3ccc(Oc4ccccc4)cc3)c3c(N)n[nH]c(=O)c32)C1` [Example 28], for which the IC50 was less than 100 nM.
